Experimental data published in ChEMBL document CHEMBL1201862, “PubChem BioAssay data set” (2004).
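These data come from cells grown in 96-well plates and exposed to compound for 48 hours at five concentrations. At the GI50, growth is halved.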 Active and inactive are the calls of the source. Cut-off read from the data, not from the text of the source: active = GI50 up to about 1.1 µM and inactive = higher.

Key:
Experiment in all cases: NCI anticancer screen, dose series, 48 h
CAKI-1 = system: CAKI-1
HCT-116 = system: HCT-116
HOP-92 = system: HOP-92
MOLT-4 = system: MOLT-4
NCI-H23 = system: NCI-H23
RPMI-8226 = system: RPMI-8226
RXF 393 = system: RXF 393
SF-268 = system: SF-268
SF-295 = system: SF-295
SN12C = system: SN12C
SNB-75 = system: SNB-75
SW-620 = system: SW-620
U-251 = system: U-251
UACC-257 = system: UACC-257
UO-31 = system: UO-31
MCF7 = system: MCF7
MDA-MB-231 = system: MDA-MB-231
MDA-MB-435 = system: MDA-MB-435
MDA-N = system: MDA-N

Measured: GI50

O=C(CC(=O)c1ccccc1)C(=O)NC12CC3CC(CC(C3)C1)C2
inactive: CAKI-1 > 100 µM | HCT-116 > 64.1 µM | HOP-92 > 100 µM | MOLT-4 > 100 µM | NCI-H23 > 100 µM | RPMI-8226 > 45.3 µM | RXF 393 > 31.9 µM | SF-268 > 91.4 µM | SF-295 > 100 µM | SN12C > 100 µM | SNB-75 > 69.7 µM | SW-620 > 41.6 µM | U-251 > 88.9 µM | UACC-257 > 100 µM | UO-31 > 100 µM

COC(=N)/C(=C1\OC(=N)C(c2ccc(Cl)cc2)=C1O)c1ccc(Cl)cc1
inactive: CAKI-1 > 100 µM | HCT-116 > 100 µM | HOP-92 > 100 µM | MOLT-4 > 100 µM | NCI-H23 > 100 µM | RPMI-8226 81.8 µM | RXF 393 > 100 µM | SF-268 > 100 µM | SF-295 > 100 µM | SN12C > 100 µM | SNB-75 > 100 µM | SW-620 > 100 µM | U-251 > 100 µM | UACC-257 > 100 µM | UO-31 > 100 µM

COc1ccc(OC)c(NC(=O)C2=C(C)NC(C)=C(C(=O)Nc3cc(OC)ccc3OC)C2c2ccccc2)c1
inactive: CAKI-1 > 100 µM | HCT-116 45.5 µM | HOP-92 6.41 µM | MOLT-4 6.5 µM | NCI-H23 > 100 µM | RPMI-8226 4.91 µM | RXF 393 > 100 µM | SF-268 63.7 µM | SF-295 80.4 µM | SN12C > 100 µM | SNB-75 22.8 µM | SW-620 > 100 µM | U-251 > 100 µM | UACC-257 > 100 µM | UO-31 35.6 µM

CCOc1cc2c(C(=O)CC)c(O)ccc2o1
inactive: CAKI-1 > 100 µM | HCT-116 > 48 µM | HOP-92 > 100 µM | MOLT-4 58.1 µM | NCI-H23 > 100 µM | RPMI-8226 > 58.1 µM | RXF 393 > 45.1 µM | SF-268 > 100 µM | SF-295 > 100 µM | SN12C > 100 µM | SNB-75 > 91 µM | SW-620 57.3 µM | U-251 > 100 µM | UACC-257 > 100 µM | UO-31 > 100 µM

Cc1cccc(N2C(=O)C(Cl)=C(Cl)C2=O)c1
inactive: CAKI-1 > 42.3 µM | HCT-116 38.6 µM | HOP-92 > 53.8 µM | MOLT-4 33.9 µM | NCI-H23 > 69.2 µM | RPMI-8226 > 47.1 µM | RXF 393 16.5 µM | SF-268 97.3 µM | SF-295 > 100 µM | SN12C > 80.5 µM | SNB-75 > 100 µM | SW-620 > 44 µM | U-251 > 100 µM | UACC-257 > 100 µM | UO-31 > 100 µM

O=c1[nH]cc(COCCO)c(=O)[nH]1
inactive: CAKI-1 > 100 µM | HCT-116 > 100 µM | HOP-92 > 100 µM | MOLT-4 > 100 µM | NCI-H23 > 100 µM | RPMI-8226 > 100 µM | RXF 393 > 100 µM | SF-268 > 100 µM | SF-295 > 100 µM | SN12C > 100 µM | SNB-75 > 100 µM | SW-620 > 100 µM | U-251 > 100 µM | UACC-257 > 100 µM | UO-31 > 100 µM

CCCCNC(=S)N/C=C1\C(=O)Oc2ccccc2C1=O
inactive: CAKI-1 26.1 µM | HCT-116 73.5 µM | HOP-92 > 100 µM | MCF7 > 100 µM | MDA-MB-231 73.8 µM | MDA-MB-435 61 µM | MDA-N 64 µM | MOLT-4 43.3 µM | NCI-H23 88.5 µM | SF-295 > 100 µM | SN12C 68.5 µM | SNB-75 2.69 µM | SW-620 41.7 µM | U-251 54 µM | UACC-257 > 100 µM | UO-31 37.2 µM

Cc1nc2c(C)ccc([N+](=O)[O-])c2c(NCCCN(C)C)c1C
inactive: CAKI-1 66.4 µM | HCT-116 74.6 µM | HOP-92 > 100 µM | MCF7 46.5 µM | MDA-MB-435 39.2 µM | MDA-N 33.1 µM | MOLT-4 28.3 µM | NCI-H23 > 75.9 µM | RPMI-8226 52.6 µM | RXF 393 58.7 µM | SF-268 > 100 µM | SF-295 38.4 µM | SN12C > 62.8 µM | SNB-75 > 65.3 µM | SW-620 > 38.5 µM | U-251 > 57.8 µM | UACC-257 23.3 µM | UO-31 > 100 µM

O=C1C=C2CCC[C@H]3OC(=O)C[C@@]23CC1
inactive: CAKI-1 > 100 µM | HCT-116 > 100 µM | HOP-92 > 100 µM | MDA-MB-231 > 100 µM | MDA-MB-435 > 100 µM | MDA-N > 100 µM | MOLT-4 > 100 µM | NCI-H23 > 100 µM | RPMI-8226 > 100 µM | RXF 393 > 100 µM | SF-268 > 100 µM | SF-295 > 100 µM | SN12C > 100 µM | SW-620 > 100 µM | U-251 > 100 µM | UACC-257 > 100 µM

COC(=O)C1[C@H](c2cc(OC)c(OC)c(OC)c2)OC(=O)C1(C(=O)OC)C(=O)c1ccc2c(c1)OCO2 (some centres not stated)
inactive: CAKI-1 > 100 µM | HCT-116 > 100 µM | HOP-92 > 100 µM | MOLT-4 > 100 µM | NCI-H23 > 100 µM | RPMI-8226 > 100 µM | RXF 393 > 100 µM | SF-268 > 100 µM | SF-295 > 100 µM | SN12C > 100 µM | SNB-75 > 100 µM | SW-620 > 100 µM | U-251 > 100 µM | UACC-257 > 100 µM | UO-31 > 100 µM

Oc1cc(O)c(Oc2cccc(O)c2O)c(O)c1
inactive: CAKI-1 > 100 µM | HOP-92 > 100 µM | MOLT-4 > 100 µM | NCI-H23 > 100 µM | RPMI-8226 > 100 µM | RXF 393 > 100 µM | SF-268 > 100 µM | SF-295 > 100 µM | SN12C > 100 µM | SNB-75 45.8 µM | SW-620 55.6 µM | U-251 > 100 µM | UACC-257 > 100 µM | UO-31 > 100 µM

Cn1cnc(N2CCCC2)c(C#N)c1=O
inactive: CAKI-1 > 100 µM | HCT-116 > 100 µM | HOP-92 > 100 µM | MCF7 > 100 µM | MDA-MB-231 > 100 µM | MDA-MB-435 > 100 µM | MDA-N > 100 µM | MOLT-4 > 100 µM | NCI-H23 > 100 µM | RPMI-8226 > 100 µM | RXF 393 > 100 µM | SF-268 > 100 µM | SF-295 > 100 µM | SN12C > 100 µM | SW-620 > 100 µM | U-251 > 100 µM | UACC-257 > 100 µM | UO-31 > 100 µM
